Measured values taken from US20250040548A1, “Herbicidal compositions comprising saflufenacil” (BASF SF, priority 2023, published 2025).

What was measured:
AVEST = experiment: Post-emergence application in field trials (Examples 2 and 3); type: in vivo, Avena stirilis; details: growth stage 12-22, B-1 solo 25 g ai/ha, 14 DAT, 1% v/ MSO
Experimental: (§1) In the examples below, using the method of S. R. Colby (1967) “Calculating synergistic and antagonistic responses of herbicide combinations”, Weeds 15, p. 22ff., the value E, which is expected if the activity of the individual active compounds is only additive, was calculated.
(§2) [formula] • where • X=percent activity using active herbicide A at an application rate a; • Y=percent activity using active saflufenacil at an application rate b; • E=expected activity (in %) by A+B at application rates a+b.
(§3) If the value found experimentally is higher than the value E calculated according to Colby, a synergistic effect is present.
(§4) On field test sites, natural weed infestation or seeded weeds were treated post-emergence of the weeds.
(§5) For the post emergence treatment, the weedy plants were treated as indicated below. The herbicidal compositions were, together with the adjuvant(s) as indicated, suspended or emulsified in water (200 l/ha unless indicated otherwise) as distribution medium and sprayed with commercial flat fan nozzles.
(§6) In the following experiments, the herbicidal activity for the individual herbicidal compositions (solo and mixture applications) was assessed the indicated days after treatment (DAT). The assessments for the damage on undesired weeds caused by the composition was carried out using a scale from 0 to 100%, compared to the untreated control plants. […]

BIDPI = experiment: as above; type: in vivo, Bidens pilosa; details: B-1 25 g ai/ha, 21 DAT, growth stage 12-16, height 5-10 cm, 0.5% MSO
Experimental: as §1, §2, §3, §4, §5, §6

CHEAL = experiment: Post-emergence application in greenhouse trials; type: in vivo, Chenopodium album; details: B-1 3.12 g ai/ha, 21 DAT, growth stage 51, saflufenacil as commercial 342 g/l SC formulation
Experimental: as §1, §2, §3
(§7) The culture containers used were plastic pots containing loamy sand with approximately 3.0% of humus as substrate. The seeds of the test plants were sown separately for each species.
(§8) For the post-emergence treatment, the test plants were grown to a plant height of from 3 to 15 cm, depending on the plant habit, and only then treated with the active compounds which had been suspended or emulsified in water. To this end, the test plants were either sown directly, and grown in the same containers, or they were first grown separately as seedlings and transplanted into the test containers a few days prior to treatment. […]
(§9) The test period extended over 2 to 4 weeks. During this time, the plants were tended and their response to the individual treatments was evaluated. […]

STEME = experiment: Post-emergence application in field trials (Examples 2 and 3); type: in vivo, Stellaria media; details: B-1 12.5 g ai/ha, 21 DAT, growth stage 63-67, height 7-18 cm, 140 l/ha water, 1% MSO + 2.5% ammoniumsulfate
Experimental: as §1, §2, §3, §4, §5, §6

ELEIN [1] = experiment: Post-emergence application in greenhouse trials; type: in vivo, Eleusine indica; details: B-1 3.12 g ai/ha, 21 DAT, growth stage 21, saflufenacil as commercial 342 g/l SC formulation
Experimental: as §1, §2, §3, §7, §8, §9

SETVI = experiment: Post-emergence application in field trials (Examples 2 and 3); type: in vivo, Setaria viridis
Experimental: as §1, §2, §3, §4, §5
(§10) In the following experiments, the herbicidal activity for the individual herbicidal compositions (solo and mixture applications) was assessed the indicated days after treatment (DAT). The assessments for the damage on undesired weeds caused by the composition was carried out using a scale from 0 to 100%, compared to the untreated control plants. Here, 0 means no damage and 100 means complete destruction of the plants.
(§11) For the post emergence treatment, the weedy plants were treated as indicated below. The herbicidal compositions were, together with the adjuvant(s) as indicated, suspended or emulsified in water (200 I/ha unless indicated otherwise) as distribution medium and sprayed with commercial flat fan nozzles.

COMBE [2] = experiment: as above; type: in vivo, Commelina benghalensis; details: B-1 25 g ai/ha, 21 DAT, growth stage 11-14, height 2-10 cm, 0.5% MSO
Experimental: as §1, §2, §3, §4, §5, §6

IPOTR = experiment: as above; type: in vivo, Ipomoea triloba; details: growth stage 40-41, height 65-75 cm, B-1 solo 25 g ai/ha, 21 DAT, 1% Dash ® HC
Experimental: as §1, §2, §3, §4, §5, §6

ECHCG = experiment: as above; type: in vivo, Echinocloa crus-galli
Experimental: as §1, §2, §3, §4, §5, §10, §11

KCHSC = experiment: Post-emergence application in greenhouse trials; type: in vivo, Kochia scoparia; details: growth stage 33, 1% MSO
Experimental: as §1, §2, §3, §7
(§12) For the post-emergence treatment, the test plants were grown to a plant height of from 3 to 15 cm, depending on the plant habit, and only then treated with the active compounds which had been suspended or emulsified in water. To this end, the test plants were either sown directly, and grown in the same containers, or they were first grown separately as seedlings and transplanted into the test containers a few days prior to treatment.
(§13) Depending on the species, the plants were kept at 10-25° C. and 20-35° C., respectively.
(§14) The test period extended over 2 to 4 weeks. During this time, the plants were tended and their response to the individual treatments was evaluated.
(§15) Evaluation was carried out using a scale from 0 to 100. 100 means no emergence of the plants, or complete destruction of at least the above-ground parts, and 0 means no damage or normal course of growth. A good herbicidal activity is given at values of at least 70, and very good herbicidal activity is given at values of at least 85.
(§16) Unless indicated otherwise, herbicide A and saflufenacil were formulated (50 g/I) and applied with addition of 1% MSO (methylated seed oil) as adjuvant. In the greenhouse trials, the solvent used was water (200 I/ha).

AMATA = experiment: Post-emergence application in greenhouse trials; type: in vivo, Amaranthus tamariscinus; details: 20 DAT, growth stage 14, 1% MSO
Experimental: as §1, §2, §3, §7, §12, §13, §14, §15, §16

EPHHL = experiment: Post-emergence application in field trials (Examples 2 and 3); type: in vivo, Euphorbia heterophylla; details: B-1 25 g ai/ha, 21 DAT, growth stage 12-16, height 5-15 cm, 0.5% MSO
Experimental: as §1, §2, §3, §4, §5, §6

COMBE [3] = experiment: Post-emergence application in greenhouse trials; type: in vivo, Commelina benghalensis; details: growth stage 21, 1% MSO
Experimental: as §1, §2, §3, §7, §12, §13, §14, §15, §16

ELEIN [4] = experiment: Post-emergence application in field trials (Examples 2 and 3); type: in vivo, Eleusine indica
Experimental: as §1, §2, §3, §4, §5, §10, §11

BRADC = experiment: as above; type: in vivo, Brachiaria decumbens; details: growth stage 22-23, height 32-38 cm, B-1 solo 25 g ai/ha, 21 DAT, 1% Dash ® HC
Experimental: as §1, §2, §3, §4, §5, §10, §11

SMILES: CC(C)N(C)S(=O)(=O)NC(=O)c1cc(-n2c(=O)cc(C(F)(F)F)n(C)c2=O)c(F)cc1Cl [B-1, saflufenacil]
- % Herbicidal activity (AVEST): 0%
- % Herbicidal activity (BIDPI): 5%
- % Herbicidal activity (CHEAL): 85%
- % Herbicidal activity (STEME): 53%
- % Herbicidal activity (ELEIN [1]): 30%
- % Herbicidal activity (SETVI; B-1 25 g ai/ha, 19 DAT, growth stage 13-19, height 2.5-10 cm, field, 1% v/v MSO and 1% w/v ammoniumsulfate): 22%
- % Herbicidal activity (SETVI; SETVI, height 50-61 cm, B-1 solo 25 g ai/ha, 42 DAT, 1% v/v MSO and 2.5% AMSOL ®): 33%
- % Herbicidal activity (COMBE [2]): 5%
- % Herbicidal activity (IPOTR): 43%
- % Herbicidal activity (ECHCG; B-1 12.5 g ai/ha, 14 DAT, growth stage 14-19, height 2-8 cm, field, 140 l/ha water, 1% MSO + 2.5% ammoniumsulfate): 40%
- % Herbicidal activity (ECHCG; B-1 25 g ai/ha, 21 DAT, height 12.5-30 cm, field, 1% v/v MSO and 1% w/v ammoniumsulfate): 23%
- % Herbicidal activity (ECHCG; ECHCG, growth stage 21-23, height 43-44 cm, B-1 solo 25 g ai/ha, 21 DAT, 1% Dash ® HC): 27%
- % Herbicidal activity (KCHSC; B-1 0.2 g ai/ha, 6 DAT): 15%
- % Herbicidal activity (KCHSC; B-1 0.3 g ai/ha, 6 DAT): 35%
- % Herbicidal activity (KCHSC; B-1 0.8 g ai/ha, 6 DAT): 60%
- % Herbicidal activity (KCHSC; B-1 0.8 g ai/ha, 20 DAT): 70%
- % Herbicidal activity (KCHSC; B-1 0.9 g ai/ha, 6 DAT): 60%
- % Herbicidal activity (KCHSC; B-1 1 g ai/ha, 6 DAT): 80%
- % Herbicidal activity (KCHSC; B-1 1 g ai/ha, 20 DAT): 80%
- % Herbicidal activity (AMATA; B-1 0.2 g ai/ha): 70%
- % Herbicidal activity (AMATA; B-1 0.3 g ai/ha): 85%
- % Herbicidal activity (EPHHL): 5%
- % Herbicidal activity (COMBE [3]; B-1 0.2 g ai/ha, 6 DAT): 15%
- % Herbicidal activity (COMBE [3]; B-1 0.2 g ai/ha, 20 DAT): 5%
- % Herbicidal activity (COMBE [3]; B-1 0.8 g ai/ha, 20 DAT): 75%
- % Herbicidal activity (ELEIN [4]; B-1 12.5 g ai/ha, 21 DAT, height 1-15 cm, 140 l/ha water, 1% MSO + 2.5% ammoniumsulfate): 19%
- % Herbicidal activity (ELEIN [4]; B-1 25 g ai/ha, 19 DAT, growth stage 24, 0.5% MSO): 0%
- % Herbicidal activity (ELEIN [4]; B-1 25 g ai/ha, 21 DAT, height 7-10 cm, 1% v/v MSO and 1% w/v ammoniumsulfate): 0%
- % Herbicidal activity (ELEIN [4]; B-1 25 g ai/ha, 21 DAT, height 15-20 cm, 1% v/v MSO and 1% w/v ammoniumsulfate): 0%
- % Herbicidal activity (BRADC): 12%
